Entries after “also recorded” stand apart in the source; their conditions may differ. Where two headings read alike, the source gives them in different places.
How the values were obtained:
[1] = tested on: ROR-1×TCL1 leukemia cells; experiment: ROR-1×TCL1 leukemia adoptive transfer in immunodeficient Rag2-/-γc-/- mice; type: in vivo; conditions: day 25; for numbers of splenic ROR-1×TCL1 leukemia cells, dose dependence: ibrutinib daily 15, 5, 1.67 mg/kg or single dose UC-961/cirmtuzumab 10, 3, 1 mg/kg
Description: ROR-1×TCL1 leukemia adoptive transfer study. […] ROR-1×TCL1 leukemia B cells (CD5B220^lowROR-1^+) were isolated from the spleen, enriched via density gradient centrifugation, suspended in sterile PBS, injected i.v. into Rag2^−/−γc^−/− recipient mice at 2×10^4 cells per animal. Samples used for transplantation were verified by flow cytometry to be >95% leukemia B cells. For dose dependent therapy of UC-961, recipient mice received either no treatment, or one dose i.v. injections of 10 mg/kg, 3 mg/kg and 1 mg/kg of UC-961 on day 1. […] All mice were sacrificed on day 25 and single-cell suspensions of splenocytes were purged of red blood cells by hypotonic lysis in ammonium-chloride-potassium (ACK) lysis solution, washed, suspended in 2% (wt/vol) BSA (Sigma) in PBS (pH=7.4) and stained for surface expression of CD3 (17A2), CD5 (53-7.3), B220 (RA3-6B2), and ROR-1 (4A5) using optimized concentrations of fluorochrome-conjugated mAbs. Cells were examined by four-color, multiparameter flow cytometry using a dual-laser FACSCalibur (BD) and the data were analyzed using FlowJo software (TreeStar). The total number of leukemia cells per spleen was calculated by determining the percent of CD5B220^lowROR-1^+ cells of total lymphocytes by flow cytometry and multiplying this number by the total spleen cell count.
(§1) ROR-1×TCL1 Leukemia Adoptive Transfer Study.

[2] = tested on: ROR-1×TCL1 leukemia cells; experiment: ROR-1×TCL1 leukemia adoptive transfer in immunocompetent ROR-1-Tg mice; type: in vivo; conditions: cirmtuzumab 10 mg/kg weekly i.v. and/or ibrutinib 5 mg/kg daily via gavage, after 28 days
Excerpt: as §1
After 28 days, the animals were sacrificed and the spleen of each animal was examined.

[3] = tested on: natural killer cells, macrophages or neutrophils; conditions: cited from earlier work; for cell-mediated mechanisms induced by anti-CD20 antibodies rituximab, ofatumumab or obinutuzumab: purified systems or whole blood assays
[4] = tested on: cell lines or chronic lymphocytic leukemia samples; conditions: cited from earlier work
[5] = single dose UC-961/cirmtuzumab 1 mg/kg and/or ibrutinib 5 mg/kg daily

Row | SMILES | numbers of splenic ROR-1×TCL1 leukemia cells, dose dependence [1] | numbers of splenic ROR-1×TCL1 leukemia cells, dose dependence ([1]; listed as Ibrutinib) | percentage and total number of ROR-1×TCL1 leukemia cells per spleen [1, 5] | spleen size [1, 5] | mean proportion and leukemia cell number in the spleen [2] | spleen size [2] | cell-mediated mechanisms induced by anti-CD20 antibodies rituximab, ofatumumab or obinutuzumab [3] | cell-mediated mechanisms induced by anti-CD20 antibodies rituximab, ofatumumab or obinutuzumab ([3]; listed as Ibrutinib) | complement activation or complement-mediated lysis ([4]; pre-treatment with ibrutinib) | direct cell death mediated by anti-CD20 antibodies ([4]; pretreatment with ibrutinib for 1 hour) | effect on immune cell-mediated mechanisms induced by anti-CD20 antibodies ([3]; 10 μM, compared with ibrutinib at the same concentration)
1 | C=CC(=O)N1CCC[C@@H](n2nc(-c3ccc(Oc4ccccc4)cc3)c3c(N)ncnc32)C1 [ibrutinib, 1-[(3R)-3-[4-Amino-3-(4-phenoxyphenyl)-1H-pyrazolo[3,4-d]pyrimidin-1-yl]piperidin-1-yl]prop-2-en-1-one] | Dose-dependent inhibitory effect | inhibited the expansion of ROR-1×TCL1 leukemia cells in a dose-dependent manner; also recorded: reduced the numbers of splenic leukemia cells in a dose-dependent manner | significantly lower | significantly smaller spleens | significantly lower | significantly smaller spleens | strongly inhibited all cell-mediated mechanisms | interfered with the activity of the CD20 antibodies | did not inhibit complement activation or complement-mediated lysis | did not increase direct cell death | 
2 | CC[C@H](Nc1ncnc2[nH]cnc12)c1nc2cccc(F)c2c(=O)n1-c1ccccc1 [idelalisib, 5-Fluoro-3-phenyl-2-[(15)-1-(7H-purin-6-ylamino)propyl]-4(3H)-quinazolinone] |  |  |  |  |  |  | similarly inhibits the immune cell-mediated mechanisms |  |  |  | weaker than those observed with ibrutinib
